In the series the test system is CT26 (mouse colon carcinoma) tumor. Kind of series: CT26 colon carcinoma allograft tumor model in BALB/c mice. It counts as in vivo. On the procedure:
To evaluate the efficacy of a MNK-specific inhibitor in cancer, an in vivo allograft tumor model was used. Briefly, CT26 (mouse colon carcinoma) cells grown in DMEM supplemented with 10% FBS were harvested during exponential growth and counted for tumor inoculation in immune competent BALB/c mice. Each mouse was inoculated with 0.3×10^6 CT26 tumor cells in the right flank region in a 0.2 ml volume comprising a 1:1 ratio (volume to volume) of cells in growth media (0.1 ml) and Matrigel® matrix (0.1 ml) (BD Biosciences, San Jose Calif.). Tumors were allowed to grow to 100-200 mm^3 prior to study initiation. Before beginning treatment, all animals were weighed and tumor volumes measured using a caliper. Since the tumor volume can affect the effectiveness of any given treatment, mice were randomly assigned into vehicle and test article treatment groups after tumors had reached a similar size. Each study group contained 8 mice, with each group receiving one of the following treatments: (1) Compound 107 in 10% 1-methyl-2-pyrrolidinone and 90% propylene glycol and given at a dose of 1 mg/kg orally, once a day; (2) anti-PD1 (BioXcell, Lebanon, N.H.) in PBS and given at a dose of 0.5 mg/mouse intraperitoneally, once every four days (as described by Wei et al., PLoS One 8:e84927, 2013); (3) a combination of Compound 107 at 1 mg/kg orally, once a day and anti-PD1 at 0.5 mg/mouse intraperitoneally, once every four days; (4) vehicle only control.
During the study, tumor size (for subcutaneous implants) was measured in length and width with a caliper twice a week. The tumor volume was calculated by the formula L×W×W/2 according to NCI standards. Tumor growth inhibition (TGI %) is an indication of anti-tumor effectiveness, which is expressed as follows: TGI (%)=100×(1−(ΔT/ΔC)). ΔT and ΔC were the change in mean tumor volume of the treated and control groups, relative to mean tumor volume at the start of treatment. All experiments continued until group mean tumor volume reached about 2000 to 2,500 mm^3 in size. […] Also, the body weight for each mouse was collected at least once prior to the study start, and twice a week during the study. Body weight change is an indication of tolerability, so percent body weight change is calculated as follows: body weight change (%)=100×(body weightend−body weightstart)/body weightstart. Mice were also observed daily for mortality, mobility, hunched posture, piloerection, or other signs of distress while dosing. If a mouse lost greater than 20% body weight due to toxicity, or the combination of toxicity and tumor burden, it was euthanized. If there was apparent toxicity, the mice were taken off treatment and clinical observation and body weight measurement were done daily.

Where [1] appears, read: 15 days after initiation of dosing.
The mark [2] stands for this setting: 22 days after initiation of dosing.

Regarding `Cc1cc(Nc2cc(N)ncn2)c(=O)n2c1C(=O)NC21CCCCC1.Cl` [Compound 107], the “Mean Tumor Volume (mm^3) ± SEM” value under setting [1] is given as 522.3 ± 174.4; mm^3 and the “Mean Tumor Volume (mm^3) ± SEM” value under setting [2] amounted to 1260.8 ± 499.1 mm^3. The “Tumor Growth Inhibition (% TGI)” value under setting [1] was “about 34%”; the “Tumor Growth Inhibition (% TGI)” value (15 days after initiation of dosing, listed as Cmpd 107) is 34%; the “Tumor Growth Inhibition (% TGI)” value under setting [2] is listed as “about 55%”; the “Tumor Growth Inhibition (% TGI)” value (22 days after initiation of dosing, listed as Cmpd 107) came out at 54%. Besides, the “Body Weight Change Average %” value (final day of study (day 22)) came out at 13.9%.

Source of the values: US10702526B2, “Inhibitors of immune checkpoint modulators and related methods” (eFFECTOR Therapeutics, Inc., priority 2015, dated 2020).
